Laboratory results published in patent publication US20110263696A1, “PROANTHOCYANIDINS FROM CINNAMON AND ITS WATER SOLUBLE EXTRACT INHIBIT TAU AGGREGATION” (priority 2007, published 2011).

Experiments:
[1] = molecular target: T1, tau187 (Homo sapiens, UniProt P10636); experiment: Electron microscopy of tau187 fibers; format: biochemical; conditions: tau187 50 uM, heparin 0.1 mg/ml; trimer 200 uM (FIG. 6)
T1 construct: his; made in house; host or cells: bacteria
Procedure: FIG. 6. […] Aggregation of tau^187 (50 uM) was initiated with heparin (0.1 mg/ml) in 20 mM NaPO4, pH 7.0. in the presence of: no proanthocyanidin (left panel), or 200 uM purified A-type trimer (right panel). Scale: Bars=500 nm
FIG. 13. Effect of oxidized cinnamon on tau filament formation. […] Left panel: no cinnamon; right panel 10 μM oxidized cinnamon.
FIG. 15A. […] 50 μM Tau^187 was incubated with 0.11 mg/ml heparin (18 kDa) at 23° C. Aggregation was monitored by turbidity (OD350). Cinnamaldehyde was present at a final concentration of 0, 50 and 100 μM. FIG. 15B. Electron microscopy of tau fibers in the presence of cinnamaldehyde (CA). Tau fibers were visualized by electron microscopy after 5 hrs of aggregation in the presence of: 0 CA (left panel); B) 100 uM CA (right panel). […] FIG. 15 C. Trans-cinnamaldehyde chemical structure.
Two hexapeptide motifs in tau are critical for tau aggregation and fiber formation (see, e.g. von Bergen et al., Proc Nad Acad Sci USA 97, 5129-34 (2000)). These motifs lie in the first and second inter-repeat regions of the MT binding domain (FIG. 5), and it is known that engineered truncation fragments of tau that contain these motifs often undergo aggregation into fibers even more efficiently than the full-length molecule (see, e.g. Barghorn et al., Biochemistry 41, 14885-96 (2002)). […]

[2] = molecular target: T2, tau fragment (tau 187) (Homo sapiens, UniProt P10636); experiment: Thioflavin T fluorescence assay of tau aggregation; format: biochemical
T2 construct: his; made in house; host or cells: bacteria
Procedure: In one illustrative embodiment of the invention, the effects of cinnamon proanthocyanidin or its extract can be determined by fluorescence measurements in the presence of a thioflavin derivative. If aggregation proceeds through formation of an ordered structure, enhancement of thioflavin occurs. This method can be used to quantify the effects of the proanthocyanidins on the rate and extent of tau aggregation.
An alternative method is to incubate tau in the absence of thioflavin under conditions that cause aggregation in the absence and presence of cinnamon proanthocyanidin. At different times aliquots are removed to measure the aggregation by examining the fluorescence of thioflavin T added to these aliquots. As thioflavin can affect aggregation itself and could compete partly with binding of proanthocyanidin this modified assay could maximize the effect of proanthocyanidin. Because it would necessitate removing aliquots from the reaction at different times and mixing in new reagents, it is less convenient and prone to additional errors.
This conclusion was reached by measuring changes in fluorescence of thioflavin T under conditions well documented to cause formation of tau aggregates.

[3] = molecular target: T3, Full-length tau (Homo sapiens, UniProt P10636); experiment: Ultracentrifugation and SDS-PAGE of pellet vs supernatant, full-length tau; format: biochemical; conditions: 200 uM trimer; 45 min; 100,000 g x 60 min (FIG. 3b)
T3 construct: full-length tau and an engineered truncation fragment of tau (tau187) were generated by over-expression of the recombinant human protein in bacteria; made in house; host or cells: bacteria
Procedure: FIG. 3. Proanthocyanidins inhibit tau aggregation. A) Turbidity assay. Aggregation of FL-tau (50 uM) was initiated with heparin (0.1 mg/ml) in 20 mM NaPO4, pH 7.0. Curve 1: no proanthocyanidin; Curve 2: 200 uM purified A-type trimer. B) After 45 min, reactions were centrifuged at 100,000 g×60 min. The amount of tau in the pellets (P) vs. supernatants (S) were examined by SDS-PAGE. Markers (top to bottom) are 97, 66, 45 kDa. C, D) EM after aggregation for 45 min. Scale bars=500 nm; C) no proanthocyanidin, D) 200 uM purified A-type trimer.
FIG. 4. Cinnamon extract inhibits tau aggregation. […] Samples were then treated with 1% sarkosyl for 1 hr, centrifuged (105,000 g×1 hr), and the pellets (P) versus supernatants (S) then analyzed by SDS-PAGE. […]
As shown by the data disclosed in the various figures, proanthocyanidins bind to tau and inhibit tau aggregation. […] In these experiments, heparin-induced aggregation of tau into PHF-like fibers is routinely monitored by four methods: 1) enhanced Thioflavin S fluorescence emission; 2) increased turbidity measured by OD350; 3) ultracentrifugation of sarkosyl-treated samples, and 4) electron microscopy. […] To ensure that proanthocyanidin molecules were not simply binding to and precipitating tau in a non-specific manner, the amount of tau that fractionated with the pellet vs. supernatant after high-speed ultracentrifugation was analyzed.

[4] = tested on: tau-dependent MT assembly; experiment: Tau-dependent microtubule assembly, turbidity OD350; format: biochemical; conditions: tubulin 5 uM, tau187, turbidity OD350
Procedure: FIG. 9. […] Tubulin (5 uM) was incubated (a) alone, or with (b) CE, (c) tau or (d) both. MT assembly was monitored by turbidity at OD350 in a continuous spectrophotometric assay.
The normal function of tau in neurons is to regulate MT assembly and dynamics. Thus it is desirable for a potential AD therapeutic to inhibit tau aggregation but not impede normal tau function. To test this, purified tubulin was incubated with either CE, tau187 or both, and MT assembly was monitored by solution turbidity. […] The reason for this is unclear, but since tau is normally an unstructured molecule, it is possible that CE promotes a conformer in tau that favors MT binding. Thus CE and proanthocyanidins appear to act as specific inhibitors of tau aggregation that are free of side effects on normal neuron function.

[5] = tested on: adipocyte cells; conditions: 0.1 mg/ml PA trimer; Graves et al. 2001; cited from earlier work

T2 sequence (P10636 572-758 limits assumed): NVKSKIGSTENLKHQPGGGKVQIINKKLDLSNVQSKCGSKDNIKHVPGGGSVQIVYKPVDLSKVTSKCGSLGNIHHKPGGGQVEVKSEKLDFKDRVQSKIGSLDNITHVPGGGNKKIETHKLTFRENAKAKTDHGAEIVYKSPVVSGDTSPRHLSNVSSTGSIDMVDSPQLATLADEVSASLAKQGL
T1 sequence (P10636 572-758 limits assumed): as above
T3 sequence (P10636 1-441 isoform P10636-8): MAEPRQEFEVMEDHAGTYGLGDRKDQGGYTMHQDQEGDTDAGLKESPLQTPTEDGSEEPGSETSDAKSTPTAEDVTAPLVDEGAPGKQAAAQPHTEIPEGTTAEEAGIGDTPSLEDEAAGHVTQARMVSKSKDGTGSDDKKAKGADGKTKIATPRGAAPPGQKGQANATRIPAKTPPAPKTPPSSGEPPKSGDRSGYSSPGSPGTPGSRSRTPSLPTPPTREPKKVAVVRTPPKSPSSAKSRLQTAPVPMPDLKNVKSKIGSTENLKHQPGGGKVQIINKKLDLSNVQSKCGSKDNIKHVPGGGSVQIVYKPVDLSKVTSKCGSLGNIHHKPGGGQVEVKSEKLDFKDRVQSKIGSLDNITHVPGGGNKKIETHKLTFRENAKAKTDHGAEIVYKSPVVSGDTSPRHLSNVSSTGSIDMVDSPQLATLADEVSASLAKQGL

Inhibition of tau187 aggregation by EM [1]: effectively inhibited
Inhibition of tau 187 aggregation by thioflavin T fluorescence [2]: reduces aggregation of tau
Tau in pellet vs supernatant after ultracentrifugation [3]: remain in the soluble fraction
Substance: A-linked proanthocyanidin trimer [A-type trimer]
Effect on tau-dependent MT assembly [4]: does not inhibit
Glucose uptake [5]: increase in glucose uptake
